Data as given in patent US11345716B2, “Nitrogen-containing condensed ring compounds having dopamine D3 antagonistic effect” (Shionogi & Co., Ltd., priority 2016, dated 2022).
pKi: −log10 of the molar value.

Assays:
impulsivity in rat = experiment: Effect of suppressing impulsivity in rat (T-maze delayed large reward, i.p.); assay type: in vivo; conditions: 3 mg/kg, total 50 trials of 5 days, versus vehicle control group
Text: Test Example 3-1: Effect of Suppressing Impulsivity in Rat
Male Crl: WI rats were obtained at post-natal day 14 and weaning was occurred at post-natal day 21. Starting from then, the rats were housed 2-3 per cage and food-restricted (Day 1). The feeding amount was 5 g/day at post-natal day 21-28 (Day 1-8), 8.5 g/day at post-natal day 29-32 (Day 9-12), and 10 g/day at post-natal day 33-36 (Day 13-16), preventing their body weight from being 60% or less of the weight of the free feeding rats.
4 days after the beginning of the food restriction (Day 5), pellets were put on goal boxes located in the left-side and the right-side of T-maze. Then, the rats were allowed to freely explore the T-maze-box for 5 min to get habituated to the T-maze box and learn that the pellets were put on the goal boxes located in the left-side and the right-side. For 4 consecutive days from the next day (Day 6-9), one pellet (20 mg×1) was put in one side of the goal box as a small reward, and 5 pellets (20 mg×5) were put in the other side of the goal box as a large reward, and the rats were trained to learn their positions. Each rat underwent 10-trial per day trainings. […] The evaluations of the drug efficacy were started on Day 12. […]

[1] = target: human recombinant dopamine D3 receptor (Homo sapiens (Human), UniProt P35462); experiment: Test of binding inhibition for the human dopamine D3 receptor (SPA, [3H]-Metylspiperone); conditions: Jump-In HEK cell membranes, 2 nM [3H]-Metylspiperone, 120 min at 25° C.; read-out: hD3_Ki
Sequence of human recombinant dopamine D3 receptor (P35462 whole entry): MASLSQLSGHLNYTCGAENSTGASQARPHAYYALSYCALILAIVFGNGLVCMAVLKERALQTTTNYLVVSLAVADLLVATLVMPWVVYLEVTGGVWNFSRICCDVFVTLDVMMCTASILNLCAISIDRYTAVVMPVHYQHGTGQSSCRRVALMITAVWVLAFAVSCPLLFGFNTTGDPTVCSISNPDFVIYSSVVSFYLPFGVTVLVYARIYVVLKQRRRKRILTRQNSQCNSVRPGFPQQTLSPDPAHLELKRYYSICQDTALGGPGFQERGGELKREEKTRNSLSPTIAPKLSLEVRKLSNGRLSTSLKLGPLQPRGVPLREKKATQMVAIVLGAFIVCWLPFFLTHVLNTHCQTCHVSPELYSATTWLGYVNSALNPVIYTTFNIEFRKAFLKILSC
Method: Cell membranes: Jump-In HEK cell membranes expressing human recombinant dopamine D3 receptor (4 μg/well)
(§1) Non-specific ligand: (final concentration) 10 μM Butaclamol [(+)-Butaclamol Hydrochloride, D033, Sigma]
(§2) SPA beads: SPA beads [WGA PVT SPA Scintillation Beads, RPNQ0001 (500 mg), RPNQ0060 (2 g), PerkinElmer] (0.2 mg/well)
(§3) Incubation time and temperature: 120 min at 25° C.
(§4) Butaclamol or the compounds of the present invention were weighed and DMSO was added to make a 10 mM solution. This solution was diluted to each concentration.
[^3H]-Metylspiperone was weighed and the buffer solution was added to make a 6 nM solution.
SPA beads were weighed and stirred in water to make a 50 mg/mL solution. Using this solution, a mixed solution with the cell membranes was prepared.
Jump-In HEK Cell membranes (final reaction amount: 4 μg/well), SPA beads (final reaction amount: 0.2 mg/well) and Tris-HCl buffer were mixed and the mixed solution was left still for more than 60 min at 4° C. Then, 50 μL of the mixture was added to each well of the plate. In addition, 25 μL of 6 nM [^3H]-Metylspiperone (final concentration: 2 nM) was added to each well. […] Non-specific binding was calculated based on the radioactivity of [^3II]-Metylspiperone in the presence of 10 μM non-labeled Butaclamol. The total binding was calculated based on the radioactivity of [^3H]-Metylspiperone in the absence of the compounds of the present invention (Vehicle). The Ki values were calculated from dose-response curves.
Binding activities of the compounds of the present invention were calculated from the following Binding Inhibition Rate (%): Inhibition Rate (%)=[1−(c−a)(b−a)]*100(%) • a: Average cpm of non-specific binding • b: Average cpm of total binding • c: Cpm in the presence of each test compound

[2] = target: human recombinant dopamine D2 receptor (Homo sapiens (Human), UniProt P14416); experiment: Test of binding inhibition for the human dopamine D2 receptor (SPA, [3H]-Metylspiperone); conditions: Jump-In HEK cell membranes, 1.2 nM [3H]-Metylspiperone, 120 min at 25° C.; read-out: hD2_Ki
Sequence of human recombinant dopamine D2 receptor (P14416 whole entry): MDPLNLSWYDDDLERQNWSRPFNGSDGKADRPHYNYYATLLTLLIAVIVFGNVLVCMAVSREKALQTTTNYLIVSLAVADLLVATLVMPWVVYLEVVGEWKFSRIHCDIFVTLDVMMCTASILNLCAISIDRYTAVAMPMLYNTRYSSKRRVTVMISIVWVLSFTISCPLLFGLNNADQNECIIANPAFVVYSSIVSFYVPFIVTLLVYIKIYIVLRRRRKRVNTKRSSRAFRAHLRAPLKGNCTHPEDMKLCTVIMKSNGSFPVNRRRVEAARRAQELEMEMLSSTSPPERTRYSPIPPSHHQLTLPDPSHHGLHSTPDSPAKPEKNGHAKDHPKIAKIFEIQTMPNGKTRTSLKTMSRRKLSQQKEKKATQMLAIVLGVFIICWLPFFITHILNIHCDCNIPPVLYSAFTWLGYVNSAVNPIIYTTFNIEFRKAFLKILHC
Method: Test Example 1: Test of Binding Inhibition for the Human Dopamine D2 Receptor
Cell membranes: Jump-In HEK cell membranes expressing human recombinant dopamine D2 receptor (2 μg/well)
Buffer solution: 50 mM Tris-HCl (35409-45, Nacalai Tesque) (pH 7.4) containing 120 mM NaCl (31320-05, Nacalai Tesque), 1 mM MgCl2.6H2O (20909-55, Nacalai Tesque). 5 mM KCl (28514-75, Nacalai Tesque) and 2 mM CaCl2 (067-31, Nacalai Chemical, Ltd)
Radioligand: (final concentration) 1.2 nM [^3H]-Metylspiperone ([^3H—N-methyl-]-Metylspiperone, NET-856, 83.8 Ci/mmol, PerkinElmer)
as §1, §2, §3, §4
[^3H]-Metylspiperone was weighed and the buffer solution was added to make a 3.6 nM solution.
SPA beads were weighed and stirred in water to moke a 50 mg/mL solution. Using this solution, a mixed solution with the cell membranes was prepared.
225 nL of the solutions of the non-specific ligand or the compounds of the present invention at each concentration (in case of vehicle, final concentration 0.3% DMSO) were added in each well of a 384-well white/clear bottom microplate (3706, Corning). Jump-In HEK Cell membranes (final reaction amount: 2 μg protein/well), SPA beads (final reaction amount: 0.2 mg/well) and the buffer were mixed and the mixed solution was left still for more than or equal to 1 h at 4° C. Then, 50 μL of the mixture was added to each well of the plate. In addition, 25 μL of 3.6 nM [^3H]-Metylspiperone (final concentration: 1.2 nM) was added to each well. The plate was sealed by putting TopSeal-A 96/384 well (6050185, PerkinElmer) on the top of the plate, mixed using stirring deaerator (Welltornado, FK-62, Sakaki) and incubated for 120 min at 25° C. After incubation, the radioactivity of [^3H]-Metylspiperone which was binded to D2 receptor was determined by liquid scintillation counter (1450 Microbeta, PerkinElmer) in each well. Non-specific binding was calculated based on the radioactivity of [^3H]-Metylspiperone in the presence of 10 μM non-labeled Butaclamol. The total binding was calculated using the radioactivity of [^3H]-Metylspiperone in the absence of the compounds of the present invention (Vehicle). The Ki values were calculated from dose-response curves.
Binding activities of the compounds of the present invention were calculated from the following Binding Inhibition Rate (%): Inhibition Rate (%)=[1−(c−a)(b−a)]×100(%) • a: Average cpm of non-specific binding • b: Average cpm of total binding • c: Cpm in the presence of each test compound

| Compound | pKi [1] | pKi [2] | number of choices for the large reward (impulsivity in rat) |
| --- | --- | --- | --- |
| O=C(N[C@H]1CC[C@H](CCN2CCc3sc(OCC(F)F)nc3C2)CC1)c1cccc2ncccc12 [Compound I-085] |  |  | significantly increased |
| Cc1cc(CC(=O)N[C@H]2CC[C@H](CCN3CCc4sc(N5CC(F)(F)C5)nc4C3)CC2)on1 [Compound I-098] | 9.92 | 5.80 |  |
| COc1cc(CCC(=O)N[C@H]2CC[C@H](CCN3CCc4ccc(OCC(F)F)nc4CC3)CC2)on1 [II-041] | 10.24 | 6.54 |  |
| Cc1cn2c(C(=O)N[C@H]3CC[C@H](CCN4CCc5ccc(OCC(F)F)nc5CC4)CC3)cccc2n1 [II-057] | 10.85 | < 5.77 |  |

Further lines, with some results ahead:

| pKi [1] | pKi [2] | Compound | number of choices for the large reward (impulsivity in rat) |
| --- | --- | --- | --- |
| 8.96 | < 5.77 | Cc1ncc(CC(=O)N[C@H]2CC[C@H](CCN3CCc4cnc(OCC(F)F)nc4CC3)CC2)s1 [II-062] |  |
| 9.60 | 6.32 | Cc1ncc(CC(=O)N[C@H]2CC[C@H](CCN3CCc4cc(C)c(OCC(F)F)nc4CC3)CC2)s1 [III-008] |  |
